Test results reported in paper PMC6222422, “Synthesis and Biological Evaluation of Novel Indole-Derived Thioureas” (Molecules : A Journal of Synthetic Chemistry and Natural …, 2018).
≈ marks a conversion by molar mass, not a printed value.

Tests used:
Cytotoxicity, MTT method [1] = conditions: Syrian hamster (Mesocricetus auratus)
Cytotoxicity, MTT method [2] = conditions: cattle (Bos taurus)
BVDV = assay: microbe, parasite or virus in culture; type: cell-based, bovine viral diarrhoea virus; conditions: for EC50: Bovine viral diarrhea virus isolates and strains, MDBK, in Bos taurus, read-out: BVDV EC50
YFV = assay: microbe, parasite or virus in culture; type: cell-based; conditions: Yellow fever virus, BHK, read-out: YFV EC50
Cytotoxicity, MTT method [3] = conditions: African green monkey (Cercopithecus aethiops)
RSV = assay: microbe, parasite or virus in culture; type: cell-based, human respiratory syncytial virus; conditions: human respiratory syncytial virus, Vero 76, read-out: RSV EC50
S. epidermidis (MRSE) = assay: MIC against hospital strains; conditions: Staphylococcus epidermidis
VV = assay: microbe, parasite or virus in culture; type: cell-based; conditions: Orthopoxvirus vaccinia, Vero 76, read-out: VV EC50
HSV-1 = assay: microbe, parasite or virus in culture; type: cell-based, human herpes 1; conditions: Human alphaherpesvirus 1, Vero 76, read-out: HSV-1 EC50
Sb-1 = assay: microbe, parasite or virus in culture; type: cell-based, poliovirus type-1; conditions: Enterovirus C, Vero 76, read-out: Sb-1 EC50
M. luteus ATCC 9341 [4] = assay: disc diffusion method; type: cell-based, Micrococcus luteus; conditions: Micrococcus luteus, ATCC9341, applied 400 µg per disc, dash = lack of the growth inhibition area, read-out: diameter of growth inhibitory zone (GIZ)
M. luteus ATCC 9341 [5] = assay: MIC, twofold serial agar dilution; type: cell-based; conditions: Micrococcus luteus, ATCC9341, 18 h, 35 °C, read-out: minimal inhibitory concentrations (MIC)
Reo-1 = assay: microbe, parasite or virus in culture; type: cell-based, reovirus type-1; conditions: Reovirus sp., BHK, read-out: Reo-1 EC50
B. cereus ATCC 11778 [6] = assay: disc diffusion method; type: cell-based, Bacillus cereus; conditions: Bacillus cereus, ATCC11778, applied 400 µg per disc, dash = lack of the growth inhibition area, read-out: diameter of growth inhibitory zone (GIZ)
S. aureus ATCC 6538 [7] = assay: MIC, twofold serial agar dilution; type: cell-based; conditions: Staphylococcus aureus, ATCC6538, 18 h, 35 °C, read-out: minimal inhibitory concentrations (MIC)
S. aureus ATCC 25923 [8] = assay: MIC, twofold serial agar dilution; type: cell-based; conditions: Staphylococcus aureus, ATCC25923, 18 h, 35 °C, read-out: minimal inhibitory concentrations (MIC)
S. aureus NCTC 4163 [9] = assay: MIC, twofold serial agar dilution; type: cell-based; conditions: Staphylococcus aureus, NCTC4163, 18 h, 35 °C, read-out: minimal inhibitory concentrations (MIC)
S. aureus ATCC 6538 [10] = assay: disc diffusion method; type: cell-based, Staphylococcus aureus; conditions: Staphylococcus aureus, ATCC6538, applied 400 µg per disc, dash = lack of the growth inhibition area, read-out: diameter of growth inhibitory zone (GIZ)
M. luteus ATCC 10240 [11] = assay: MIC, twofold serial agar dilution; type: cell-based; conditions: Micrococcus luteus, ATCC10240, 18 h, 35 °C, read-out: minimal inhibitory concentrations (MIC)
HIV-1 = assay: microbe, parasite or virus in culture; conditions: Human immunodeficiency virus 1, MT4, read-out: HIV-1 EC50
in vitro [12] = conditions: Syrian hamster (Mesocricetus auratus)
CV-B5 = assay: microbe, parasite or virus in culture; type: cell-based, coxsackievirus B5; conditions: Enterovirus B, CVB5, Vero 76, read-out: CV-B5 EC50
in vitro [13] = conditions: human
VSV = assay: microbe, parasite or virus in culture; type: cell-based; conditions: Vesicular stomatitis virus, Vero 76, read-out: VSV EC50
in vitro [14] = conditions: African green monkey (Cercopithecus aethiops)
S. aureus ATCC 25923 [15] = assay: disc diffusion method; type: cell-based, Staphylococcus aureus; conditions: Staphylococcus aureus, ATCC25923, applied 400 µg per disc, dash = lack of the growth inhibition area, read-out: diameter of growth inhibitory zone (GIZ)
S. aureus NCTC 4163 [16] = assay: disc diffusion method; type: cell-based, Staphylococcus aureus; conditions: Staphylococcus aureus, NCTC4163, applied 400 µg per disc, dash = lack of the growth inhibition area, read-out: diameter of growth inhibitory zone (GIZ)
in vitro [17] = conditions: cattle (Bos taurus)
B. subtilis ATCC 6633 [18] = assay: MIC, twofold serial agar dilution; type: cell-based; conditions: Bacillus subtilis, ATCC6633, 18 h, 35 °C, read-out: minimal inhibitory concentrations (MIC)
M. luteus ATCC 10240 [19] = assay: disc diffusion method; type: cell-based, Micrococcus luteus; conditions: Micrococcus luteus, ATCC10240, applied 400 µg per disc, dash = lack of the growth inhibition area, read-out: diameter of growth inhibitory zone (GIZ)
B. subtilis ATCC 6633 [20] = assay: disc diffusion method; type: cell-based, Bacillus subtilis; conditions: Bacillus subtilis, ATCC6633, applied 400 µg per disc, dash = lack of the growth inhibition area, read-out: diameter of growth inhibitory zone (GIZ)
B. cereus ATCC 11778 [21] = assay: MIC, twofold serial agar dilution; type: cell-based; conditions: Bacillus cereus, ATCC11778, 18 h, 35 °C, read-out: minimal inhibitory concentrations (MIC)

## C[C@@]1(O)[C@H](O)[C@@H](CO)O[C@H]1n1cnc2c(=O)[nH]c(N)nc21 [2′-C-methyl-guanosine, 2′-C-methylguanosine, reference compound]
Cytotoxicity, MTT method [1]
  CC50: > 10 µM
Cytotoxicity, MTT method [2]
  CC50: > 10 µM
BVDV
  EC50: 1.1 ± 0.1 µM
YFV
  EC50: 1.9 ± 0.1 µM

## O=c1cnn([C@@H]2O[C@H](CO)[C@@H](O)[C@H]2O)c(=O)[nH]1 [6-Aza-uridine, 6-azauridine, reference compound]
Cytotoxicity, MTT method [3]
  CC50: 12 µM
RSV
  EC50: 1.4 ± 0.06 µM

## C=C(C)CNC(=S)NCCc1c[nH]c2ccccc12 [Compound 19, 1-(2-(1H-Indol-3-yl)ethyl)-3-(2-methylallyl)thiourea]
S. epidermidis (MRSE); hospital S. epidermidis MRSE strain 430/11
  MIC: 12.5 µg/mL (≈ 45.7 µM)
S. epidermidis (MRSE); hospital S. epidermidis MRSE strain 431/11
  MIC: 100 µg/mL (≈ 366 µM)
S. epidermidis (MRSE); hospital S. epidermidis MRSE strain 432/11
  MIC: 12.5 µg/mL (≈ 45.7 µM)
S. epidermidis (MRSE); hospital S. epidermidis MRSE strain 433/11
  MIC: 50 µg/mL (≈ 183 µM)
S. epidermidis (MRSE); hospital S. epidermidis MRSE strain 434/11
  MIC: 12.5 µg/mL (≈ 45.7 µM)
S. epidermidis (MRSE); hospital S. epidermidis MRSE strain 435/11
  MIC: 50 µg/mL (≈ 183 µM)
S. epidermidis (MRSE); hospital S. epidermidis MRSE strain 436/11
  MIC: 100 µg/mL (≈ 366 µM)
S. epidermidis (MRSE); hospital S. epidermidis MRSE strain 437/11
  MIC: 200 µg/mL (≈ 732 µM)
S. epidermidis (MRSE); hospital S. epidermidis MRSE strain 438/11
  MIC: 100 µg/mL (≈ 366 µM)
S. epidermidis (MRSE); hospital S. epidermidis MRSE strain 439/11
  MIC: 50 µg/mL (≈ 183 µM)
VV
  EC50: > 89 µM
HSV-1
  EC50: > 89 µM
Sb-1
  EC50: > 89 µM
M. luteus ATCC 9341 [4]
  zone of inhibition at 400 µg/disc: 13 mm
M. luteus ATCC 9341 [5]
  MIC: 200 µg/mL (≈ 732 µM)
Reo-1
  EC50: > 35 µM
B. cereus ATCC 11778 [6]
  zone of inhibition at 400 µg/disc: 13 mm
other
  melting point: 141 to 143 °C
S. aureus ATCC 6538 [7]
  MIC: 200 µg/mL (≈ 732 µM)
S. aureus ATCC 25923 [8]
  MIC: 400 µg/mL (≈ 1460 µM)
RSV
  EC50: > 89 µM
S. aureus NCTC 4163 [9]
  MIC: 400 µg/mL (≈ 1460 µM)
S. aureus ATCC 6538 [10]
  zone of inhibition at 400 µg/disc: 11 mm
M. luteus ATCC 10240 [11]
  MIC: 50 µg/mL (≈ 183 µM)
HIV-1
  EC50: > 100 µM
BVDV
  EC50: ≥ 100 µM
In vitro [12]
  CC50: 35 µM
CV-B5
  EC50: > 89 µM
In vitro [13]
  CC50: > 100 µM
VSV
  EC50: > 89 µM
In vitro [14]
  CC50: 89 µM
S. aureus ATCC 25923 [15]
  zone of inhibition at 400 µg/disc: 12 mm
S. aureus NCTC 4163 [16]
  zone of inhibition at 400 µg/disc: 12 mm
In vitro [17]
  CC50: > 100 µM
B. subtilis ATCC 6633 [18]
  MIC: 400 µg/mL (≈ 1460 µM)
M. luteus ATCC 10240 [19]
  zone of inhibition at 400 µg/disc: 14 mm
YFV
  EC50: > 35 µM
B. subtilis ATCC 6633 [20]
  zone of inhibition at 400 µg/disc: 13 mm
B. cereus ATCC 11778 [21]
  MIC: 200 µg/mL (≈ 732 µM)

## FC(F)(F)c1cccc(NC(=S)NCCc2c[nH]c3ccccc23)c1 [Compound 24, 1-(2-(1H-Indol-3-yl)ethyl)-3-(3-(trifluoromethyl)phenyl)thiourea]
VV
  EC50: > 16 µM
HSV-1
  EC50: > 16 µM
Sb-1
  EC50: > 16 µM
Reo-1
  EC50: > 9 µM
other
  melting point: 169 to 171 °C
RSV
  EC50: > 16 µM
HIV-1
  EC50: > 44 µM
BVDV
  EC50: > 23 µM
In vitro [12]
  CC50: 9 µM
CV-B5
  EC50: > 16 µM
In vitro [13]
  CC50: 44 µM
VSV
  EC50: > 16 µM
In vitro [14]
  CC50: 16 µM
In vitro [17]
  CC50: 23 µM
YFV
  EC50: > 9 µM

## Cc1ccc(Cl)cc1NC(=S)NCCc1c[nH]c2ccccc12 [Compound 26, 1-(2-(1H-Indol-3-yl)ethyl)-3-(3-chloro-6-methylphenyl)thiourea]
VV
  EC50: > 17 µM
HSV-1
  EC50: > 17 µM
Sb-1
  EC50: > 17 µM
Reo-1
  EC50: > 12 µM
other
  melting point: 163 to 165 °C
RSV
  EC50: > 17 µM
HIV-1
  EC50: > 45 µM
BVDV
  activity against BVDV (in words): showed activity
  EC50: 15 ± 1.2 µM
In vitro [12]
  CC50: 12 µM
CV-B5
  EC50: > 17 µM
In vitro [13]
  CC50: 45 µM
VSV
  EC50: > 17 µM
In vitro [14]
  CC50: 17 µM
In vitro [17]
  CC50: 42 µM
YFV
  EC50: > 12 µM

## CCCCc1ccc(NC(=S)NCCc2c[nH]c3ccccc23)c(C)c1 [Compound 27, 1-(2-(1H-Indol-3-yl)ethyl)-3-(4-butyl-2-methylphenyl)thiourea]
VV
  EC50: > 12 µM
HSV-1
  EC50: > 12 µM
Sb-1
  EC50: > 12 µM
Reo-1
  EC50: > 9.5 µM
other
  melting point: 172 to 174 °C
RSV
  EC50: > 12 µM
HIV-1
  EC50: > 45 µM
BVDV
  EC50: > 11 µM
In vitro [12]
  CC50: 9.5 µM
CV-B5
  EC50: > 12 µM
In vitro [13]
  CC50: 45 µM
VSV
  EC50: > 12 µM
In vitro [14]
  CC50: 12 µM
In vitro [17]
  CC50: 11 µM
YFV
  EC50: > 9.5 µM

## Fc1ccc(NC(=S)NCCc2c[nH]c3ccccc23)cc1Cl [Compound 28, 1-(2-(1H-Indol-3-yl)ethyl)-3-(3-chloro-4-fluorophenyl)thiourea]
VV
  EC50: > 32 µM
HSV-1
  EC50: > 32 µM
Sb-1
  EC50: > 32 µM
Reo-1
  EC50: > 30 µM
other
  melting point: 162 to 164 °C
RSV
  EC50: > 32 µM
HIV-1
  EC50: > 45 µM
BVDV
  activity against BVDV (in words): showed activity
  EC50: 13 ± 1.2 µM
In vitro [12]
  CC50: 30 µM
CV-B5
  EC50: 20 ± 2.1 µM
In vitro [13]
  CC50: 45 µM
VSV
  EC50: > 32 µM
In vitro [14]
  CC50: 32 µM
In vitro [17]
  CC50: 37 µM
YFV
  EC50: > 30 µM
